{"source": "patent US5101059A", "about": "“Amino acid protecting groups” (Research Corporation Technologies, Inc., priority 1989, dated 1992)", "type_in_all_cases": "physicochemical", "key": {"[1]": {"assay": "Stability of substituted Fmoc-aniline to catalytic hydrogenation", "settings": "palladium on charcoal, hydrogen 1 atm, 20 hours", "method": "1. Deblocking of 2,7-Bistrimethyl-silyl)-9-fluorenylmethyl Carbanilate: To a solution of 0.2 g BTS-Fmoc-aniline in 15 mL of 100% ethanol and 15 mL of EtOAc was added 20 mg of 10% palladium on charcoal at 0° C. The heterogeneous mixture was stirred under a hydrogen atmosphere (1 atm) for 20 hours. The catalyst was filtered and rinsed with EtOAc (2×5 mL). The combined filtrate was washed with sat'd NH4 Cl (2×20 mL), water (20 mL), and dried over anhydrous MgSO4. After evaporating the solvent in vacuo, the residue (0.14 g) was recrystallized from 95% ethanol to afford 0.11 g (78.0%) of 2,7-bis(trimethylsilyl)-9-methylfluorene as white needles, m.p. 106.5°-108° C., identified by mixture melting point, IR, and NMR spectral comparison with an authentic sample obtained as described above.\n2. Stability of 9-Trimethylsilyl-9-fluorenylmethyl Carbanilate Towards Catalytic Hydrogenation: To a mixture of 0.15 g of TMS-Fmoc-analine and 0.15 g of BTS-Fmoc-analine in 20 mL of ethyl acetate and 30 mL of 100% ethanol was added 30 mg of […] palladium on charcoal. The mixture was magnetically stirred at room temperature under a hydrogen atmosphere (1 atm) for 20 hours. The catalyst was removed by filtration and rinsed with EtOAc (2×5 mL). […] Recrystallization of the former from 95% ethanol gave 78.3 mg (74.1%) of the pure silane, m.p. 107°-108.5° C. […]"}, "[2]": {"assay": "Base deblocking of 9-xanthenylmethoxycarbonyl-L-phenylalanine", "settings": "room temperature", "method": "A. Base Deblocking of 9-Xanthenylmethoxycarbonyl-L-phenylalanine: 1. In DBU Solution: To a solution of 13.08 mg of Xmoc-Phe-Oh in 0.5 mL of DMF was added 0.5 mL of 1,8-diazabicyclo[5,4,0]-undec-7-ene (DBU, 100 eq.). The mixture was stirred at room temperature. The reaction was monitored by TLC with an eluant consisting of CHCl3 --CH3 OH--CH3 CO2 H (9:1:0.1). Deblocking was complete after 36 hours. 2. In TBD Solution: To a solution of 7.25 mg of Xmoc-Phe-OH in 0.1 mL of pyridine and 0.1 mL of DMF was added 50 mg (20 eq.) of 1,5,9-triazabicyclo[4,4,0]dec-5-ene (TBD). The mixture was stirred at room temperature and monitored by TLC with an eluant consisting of CHCl3 --CH3 OH--CH3 CO2 H (9:1:0.1). Deblocking was complete after 4.5 hours."}, "[3]": {"assay": "General statements on cleavage by piperidine or fluoride ion", "settings": "piperidine"}, "[4]": {"assay": "Solubility of TMS-Fmoc and dichloro-Xmoc derivatives versus Fmoc analogs", "experimental": "This latter property is particularly important when peptide synthesis is carried out in solution."}, "[5]": {"assay": "Base deblocking of R-Fmoc-aniline by various amines", "settings": "room temperature", "method": "2. General Procedure for Studying the Base Deblocking of the Urethanes R-Fmoc-aniline (R=TMS, DMPS, DPMS, DT-TMS, TIPS): A solution of urethane (0.05 mmol) in a sample of redistilled base (5 mmol, 100 eq.) was allowed to stand at room temperature. The reaction was monitored periodically by TLC with an eluant consisting of Skelly B--CH2 Cl2 (1:1). No reaction occurred according to the TLC test for urethanes having R=TIPS in the case of any of the bases tested after 24 hours."}, "[6]": {"assay": "Deblocking of R-Fmoc-aniline by trifluoroacetic acid", "settings": "room temperature", "from_the_text": "1. General Procedure for Studying the stability of R-Fmoc-analine (R=TMS, DMPS, DPMS, DT-TMS, TIPS) in Trifluoroacetic Acid: To a solution of urethane (0.026 mmol) in […].) of trifluoroacetic acid. The mixture was stirred at room temperature and the course of the reaction was monitored by TLC with an eluant consisting of Skelly B--dichloromethane (1:1) to note the time needed for complete deblocking of the urethanes."}, "[7]": {"assay": "Deblocking of R-Fmoc-aniline by fluoride ion", "settings": "tetra-n-butylammonium chloride 3.0 eq., KF dihydrate 4.1 eq., acetonitrile, room temperature", "method": "3. General Procedure for Studying the Deblocking of Urethanes R-Fmoc-aniline (R=TMS, DMPS, DPMS, TIPS, DT-TMS) by Reaction with Fluoride Ion: To a solution of urethane (0.0513 mmol) in 0.7 mL of acetonitrile was added 45 mg (0.154 mmol, 3.0 eq.) of tetra-n-butyl-ammonium chloride and 20 mg (0.213 mmol, 4.1 eq.) of potassium fluoride dihydrate. The mixture was stirred at room temperature, the reaction being monitored by TLC with an eluant consisting of Skelly B--CH2 Cl2 (1:1)."}, "[8]": {"assay": "Base deblocking of substituted urethanes (U-PCA) by various amines", "settings": "dichloromethane, room temperature", "from_the_text": "1. General Procedure for Studying the Base Deblocking of the Urethanes Fmoc-PCA, BTS-Fmoc-PCA, DT-Fmoc-PCA, and TMS-Fmoc-PCA: A mixture of urethane (0.05 mmol) in a solution prepared from an equal volume of base (2.5 mmol, 50 eq.) and dichloromethane was stirred at room temperature. The course of the reaction was monitored by TLC with an eluant consisting of Skelly B--ether (3:1)."}, "[9]": {"assay": "Stability of substituted Fmoc-PCA in acetic acid", "settings": "glacial acetic acid 10 eq., CH2Cl2, room temperature, 48 hours", "method": "2. […] The mixture was stirred at room temperature for 48 hours. […] The mixture was washed with half sat'd NaHCO3 (2×10 mL) and water (10 mL). […] 161°-163° C., the IR and ^1 H NMR spectra of which matched that of an authentic sample.\n3. Stability of 9-Trimethylsilyl-9-[…] p-Chlorocarbanilate in Acetic Acid: To a solution of 0.37 g of TMS-Fmoc-PCA in 10 mL of CH2 Cl2 was added 0.5 mL (10 eq.) of glacial acetic acid. The mixture was stirred at room temperature. […] The mixture was washed with half sat'd NaHCO3 (2×10 mL) and H2 O (10 mL). […] 124°-126° C., the ^1 H NMR and IR spectra of which matched that of an authentic sample."}, "[10]": {"assay": "Stability of 9-xanthenylmethyl carbanilate towards catalytic hydrogenolysis", "settings": "5% Pd/C and palladium acetate, 40 psi hydrogen, 24 hours", "method": "5. Stability of 9-Xanthenylmethyl Carbanilate Towards Catalytic Hydrogenolysis: To a solution of 300 mg of Xmoc-aniline in 30 mL of EtOAc and 10 mL of 100% EtOH was added 30 mg of 5% palladium on charcoal and 30 mg of palladium acetate. The mixture was shaken under hydrogen at a pressure of 40 psi in a Parr apparatus for 24 hours. […] 178°-181° C., the ^1 H NMR and IR spectra of which matched that of an authentic sample."}}}
{"smiles": "C[Si](C)(C)c1ccc2c(c1)C(COC(=O)Nc1ccccc1)c1cc([Si](C)(C)C)ccc1-2", "note": "[BTS-Fmoc-aniline, 2,7-Bis(trimethylsilyl)-9-fluorenylmethyl Carbanilate]", "values": [{"measurement": "product of catalytic hydrogenation (deblocking)", "setting": "[1]", "result": "2,7-bis(trimethylsilyl)-9-methylfluorene"}]}
{"smiles": "O=C(N[C@@H](Cc1ccccc1)C(=O)O)OCC1c2ccccc2Oc2ccccc21", "note": "[Xmoc-Phe-OH, 9-Xanthenylmethoxycarbonyl-L-phenylalanine]", "values": [{"measurement": "Time for Complete Deblocking", "setting": "[2]; DBU 100 eq., DMF", "result": 36, "unit": "h"}, {"measurement": "Time for Complete Deblocking", "setting": "[2]; TBD 20 eq., pyridine and DMF", "result": 4.5, "unit": "h"}]}
{"smiles": "O=C(Nc1ccc(Cl)cc1)OCC1c2cc(Cl)ccc2Oc2ccc(Cl)cc21", "note": "[2,7-dichloro analog of Xmoc]", "values": [{"measurement": "deblocking by / stability to piperidine", "setting": "[3]", "result": "deblocked by piperidine as easily as the Fmoc group"}, {"measurement": "solubility compared with Fmoc derivatives", "setting": "[4]", "result": "greater solubility than Fmoc derivatives"}]}
{"smiles": "C[Si](C)(C)C1(COC(=O)Nc2ccccc2)c2ccccc2-c2ccccc21", "note": "[TMS-Fmoc-aniline, 9-Trimethylsilyl-9-fluorenylmethyl Carbanilate]", "values": [{"measurement": "Time for Complete Deblocking", "setting": "[5]; morpholine 100 eq.", "result": 180, "unit": "min"}, {"measurement": "Time for Complete Scavenging of Dibenzofulvene", "setting": "[5]; morpholine 100 eq.", "result": 240, "unit": "min"}, {"measurement": "Time for Complete Deblocking", "setting": "[5]; piperidine 100 eq.", "result": 100, "unit": "min"}, {"measurement": "Time for Complete Scavenging of Dibenzofulvene", "setting": "[5]; piperidine 100 eq.", "result": 300, "unit": "min"}, {"measurement": "Time for Complete Deblocking", "setting": "[5]; t-butylamine 100 eq.", "result": 720, "unit": "min"}, {"measurement": "Time for Complete Deblocking by Trifluoroacetic Acid", "setting": "[6]", "result": 5, "unit": "h"}, {"measurement": "Time for Complete Deblocking by Fluoride Ion", "setting": "[7]", "result": 5, "unit": "min"}, {"measurement": "recovered urethane", "setting": "[1]; room temperature", "result": 93.3, "unit": "%"}]}
{"smiles": "C[Si](C)(C)C1(COC(=O)Nc2ccc(Cl)cc2)c2ccccc2-c2ccccc21", "note": "[TMS-Fmoc-PCA, 9-Trimethylsilyl-9-fluorenylmethyl p-Chlorocarbanilate]", "values": [{"measurement": "solubility relative to that of the Fmoc analog", "setting": "[4]; in CH2Cl2", "result": 16, "unit": "times"}, {"measurement": "soluble to the extent of (solubility)", "setting": "[4]; in CH2Cl2", "result": 53, "unit": "g/100 mL"}, {"measurement": "Time for Complete Deblocking", "setting": "[8]; ethanolamine 50 eq.", "result": 150, "unit": "min"}, {"measurement": "Time for Complete Scavenging of Dibenzofulvene Analogs", "setting": "[8]; morpholine 50 eq.", "result": 16.5, "unit": "hr"}, {"measurement": "Time for Complete Deblocking", "setting": "[8]; morpholine 50 eq., significant aminodibenzofulvene type adduct formed", "result": 780, "unit": "min"}, {"measurement": "Time for Complete Scavenging of Dibenzofulvene Analogs", "setting": "[8]; piperidine 50 eq.", "result": 195, "unit": "min"}, {"measurement": "Time for Complete Deblocking", "setting": "[8]; piperidine 50 eq., significant aminodibenzofulvene type adduct formed", "result": 129, "unit": "min"}, {"measurement": "Time for Complete Deblocking", "setting": "[8]; t-butylamine 50 eq.", "result": "> 2900", "unit": "min"}, {"measurement": "recovered urethane", "setting": "[9]", "result": 97.5, "unit": "%"}, {"measurement": "stability in acetic acid (TLC)", "setting": "[9]", "result": "no change"}]}
{"smiles": "O=C(Nc1ccccc1)OCC1c2ccccc2Oc2ccccc21", "note": "[Xmoc-aniline, 9-Xanthenylmethyl Carbanilate]", "values": [{"measurement": "recovered urethane", "setting": "[10]", "result": 94.3, "unit": "%"}, {"measurement": "stability towards catalytic hydrogenolysis (TLC)", "setting": "[10]", "result": "remained intact"}]}
